Tests used:
[1] = Critical micelle concentration of the compound; type: ADME
[2] = target: Albumin (Bos taurus, UniProt P02769); assay: Binding affinity to bovine serum albumin; settings: cattle, isolated protein
[3] = 1-Octanol-water partition coefficient, log P of the compound; type: physicochemical

Albumin, sequence (P02769 whole entry): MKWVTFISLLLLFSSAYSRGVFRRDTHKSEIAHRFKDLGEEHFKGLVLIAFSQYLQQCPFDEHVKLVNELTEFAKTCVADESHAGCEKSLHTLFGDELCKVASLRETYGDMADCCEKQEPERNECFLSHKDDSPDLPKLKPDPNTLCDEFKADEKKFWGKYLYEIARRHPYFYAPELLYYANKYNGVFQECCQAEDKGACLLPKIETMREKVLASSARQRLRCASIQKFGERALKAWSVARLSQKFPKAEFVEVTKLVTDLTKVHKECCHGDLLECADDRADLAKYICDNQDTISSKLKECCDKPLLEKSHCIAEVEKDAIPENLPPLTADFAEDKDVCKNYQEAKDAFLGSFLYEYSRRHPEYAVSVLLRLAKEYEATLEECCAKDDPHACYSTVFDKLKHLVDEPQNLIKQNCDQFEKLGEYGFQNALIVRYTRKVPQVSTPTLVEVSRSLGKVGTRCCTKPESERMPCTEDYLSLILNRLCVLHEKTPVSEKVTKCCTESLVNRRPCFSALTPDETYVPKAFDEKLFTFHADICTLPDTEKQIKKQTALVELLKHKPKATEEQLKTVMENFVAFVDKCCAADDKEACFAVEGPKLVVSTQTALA

log1/CMC [1] | log K [2] | logP [3] | Structure (SMILES)
4.48 | – | – | CCCCCCCCCCCCCCCCCC[N+](C)(C)Cc1ccccc1.[Cl-]
1.47 | 5 | – | CCCCCCCCCC[N+](C)(C)Cc1ccccc1.[Cl-]
0.67 | 4.82 | – | CCCCCCCC[N+](C)(C)Cc1ccccc1.[Cl-]
1.85 | 4.55 | – | CCCCCCCCCCC[N+](C)(C)Cc1ccccc1.[Cl-]
3.22 | 3.57 | – | CCCCCCCCCCCCCCC[N+](C)(C)Cc1ccccc1.[Cl-]
4 | 3.55 | – | CCCCCCCCCCCCCCCCC[N+](C)(C)Cc1ccccc1.[Cl-]
4.74 | – | – | CCCCCCCCCCCCCCCCCCC[N+](C)(C)Cc1ccccc1.[Cl-]
– | – | -3.38 | CC[N+](C)(C)Cc1ccccc1
– | – | -1.85 | CCCC[N+](C)(C)Cc1ccccc1
– | – | -1.53 | CCCCCC[N+](C)(C)Cc1ccccc1
– | – | -0.29 | CCCCCCCC[N+](C)(C)Cc1ccccc1
2.57 | 3.85 | – | CCCCCCCCCCCCC[N+](C)(C)Cc1ccccc1.[Cl-] [BENZALKONIUM CHLORIDE]
3.62 | 3.49 | – | CCCCCCCCCCCCCCCC[N+](C)(C)Cc1ccccc1.[Cl-] [CETALKONIUM CHLORIDE]
2.92 | 3.51 | – | CCCCCCCCCCCCCC[N+](C)(C)Cc1ccccc1.[Cl-] [MIRISTALKONIUM CHLORIDE]

Structure (SMILES) | log1/CMC [1] | log K [2] | logP [3]
CCCCCCCCCCCC[N+](C)(C)Cc1ccccc1.[Cl-] [BENZODODECINIUM CHLORIDE] | 2.16 | 4.26 | –
